# According to ChEMBL document CHEMBL4507265 (2021):
# Columns and labels:
# [1] = target: Mitotic checkpoint serine/threonine-protein kinase BUB1 (Homo sapiens) (UniProt O43683); conditions: Compound concentration 1000.0 nM
# [2] = target: 5-hydroxytryptamine receptor 1E (Homo sapiens) (UniProt P28566); conditions: Compound concentration 10.0 uM
# [3] = target: Alpha-2C adrenergic receptor (Homo sapiens, UniProt P18825); assay: GPCRScan assay: inhibition of Alpha2C; set-up: radioligand conc. used [nm] 0.5 – 1.0, parental cells stable MDCK
# [4] = GPCRScan assay: inhibition of GABA/PBR; set-up: species or system Rattus norvegicus; radioligand conc. used [nm] 0.3 – 2.0, parental cells brain tissue
# [5] = target: Gamma-aminobutyric acid type B receptor subunit 1 (Homo sapiens) (UniProt Q9UBS5); assay: Inhibition of GABAB1A at compound concentration of 10.0 uM in the Eurofins-Panlabs radioligand binding assay (Eurofins_assay_228610); set-up: ligand concentration 4 nM; conditions: Compound concentration 10.0 uM
# [6] = target: GABA-A receptor; anion channel (Rattus norvegicus) (UniProt O09028+P15431+P18506+P18508+P19969+P20236+P23574+P23576+P28471+P28473+P30191+P62813+P63079+P63138+Q91ZM7+Q9ES14); assay: Inhibition of GABAA, Muscimol, Central at 10 µM in the Eurofins-Panlabs radioligand binding assay (Eurofins_assay_226500); assay type: protein-complex assay; conditions: Compound concentration 10.0 uM
# [7] = target: Neuropeptide Y receptor type 2 (Homo sapiens) (UniProt P49146); assay: Inhibition of Neuropeptide Y Y2 at 10 µM in the Eurofins-Panlabs radioligand binding assay (Eurofins_assay_257110); conditions: Compound concentration 10.0 uM
# [8] = target: D(2) dopamine receptor (Homo sapiens) (UniProt P14416); conditions: Compound concentration 10.0 uM
# [9] = target: Prostaglandin E2 receptor EP4 subtype (Homo sapiens) (UniProt P35408); assay: Inhibition of Prostanoid EP4 at 10 µM in the Eurofins-Panlabs radioligand binding assay (Eurofins_assay_268420); set-up: ligand concentration 1 nM; conditions: Compound concentration 10.0 uM
# [10] = target: Platelet-activating factor receptor (Homo sapiens) (UniProt P25105); assay: Inhibition of Platelet Activating Factor (PAF) at 10 µM in the Eurofins-Panlabs radioligand binding assay (Eurofins_assay_265010); conditions: Compound concentration 10.0 uM
# [11] = target: T1, Alpha-1D adrenergic receptor (Homo sapiens) (UniProt P25100); assay: Inhibition of Adrenergic alpha1D at 10 µM in the Eurofins-Panlabs radioligand binding assay (Eurofins_assay_203400); conditions: Compound concentration 10.0 uM
# T1 sequence (whole entry): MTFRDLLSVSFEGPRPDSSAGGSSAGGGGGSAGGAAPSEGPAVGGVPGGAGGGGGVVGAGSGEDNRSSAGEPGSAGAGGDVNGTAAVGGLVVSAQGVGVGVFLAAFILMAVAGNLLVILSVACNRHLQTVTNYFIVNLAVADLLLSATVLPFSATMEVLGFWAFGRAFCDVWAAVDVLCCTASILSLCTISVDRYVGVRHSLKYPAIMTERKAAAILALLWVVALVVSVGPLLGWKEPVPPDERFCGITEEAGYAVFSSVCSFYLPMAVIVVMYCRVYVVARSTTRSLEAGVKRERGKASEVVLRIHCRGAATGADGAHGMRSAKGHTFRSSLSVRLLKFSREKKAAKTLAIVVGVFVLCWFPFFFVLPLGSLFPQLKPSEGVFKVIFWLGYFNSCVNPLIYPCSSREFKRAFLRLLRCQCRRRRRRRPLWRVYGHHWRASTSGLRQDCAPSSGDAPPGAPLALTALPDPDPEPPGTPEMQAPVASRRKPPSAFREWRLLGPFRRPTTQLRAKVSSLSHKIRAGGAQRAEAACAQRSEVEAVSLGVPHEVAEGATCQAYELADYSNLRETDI
# [12] = target: Sodium-dependent noradrenaline transporter (Homo sapiens) (UniProt P23975); conditions: Compound concentration 10.0 uM
# [13] = target: Voltage-dependent N-type calcium channel subunit alpha-1B (Homo sapiens) (UniProt Q00975); assay: Inhibition of Calcium Channel N-Type at 10 µM in the Eurofins-Panlabs radioligand binding assay (Eurofins_assay_216000); conditions: Rattus norvegicus; Compound concentration 10.0 uM
# [14] = target: Beta-1 adrenergic receptor (Homo sapiens) (UniProt P08588); conditions: Compound concentration 10.0 uM
# [15] = target: Beta-2 adrenergic receptor (Homo sapiens) (UniProt P07550); conditions: Compound concentration 10.0 uM
# [16] = target: L-type calcium channel, benzothiazepine site (Cav1.2 alpha-1C) (Homo sapiens, UniProt Q13936); assay: Inhibition of Calcium Channel L-Type, Benzothiazepine at 10 µM in the Eurofins-Panlabs radioligand binding assay (Eurofins_assay_214510); set-up: ligand concentration 2 nM, non-specific ligand with concentration 10 µM Diltiazem, incubation time 3h, incubation temperature 4 °C; conditions: male, Wistar, rat, rat whole brain preparation, probe [3H] Diltiazem, 2 nM; compound concentration 10 uM; target entry is the homologue from another species
# Rattus norvegicus [17] = organism: Rattus norvegicus; assay: Inhibition of Thyroid Hormone at 10 µM in the Eurofins-Panlabs radioligand binding assay (Eurofins_assay_285900); assay type: protein assay; conditions: Compound concentration 10.0 uM
# [18] = target: Sodium-dependent serotonin transporter (Homo sapiens) (UniProt P31645); conditions: Compound concentration 10.0 uM
# [19] = target: ATP-sensitive inward rectifier potassium channel 11 (Cricetulus griseus) (UniProt A0A3L7HHE1); assay: Inhibition of Potassium Channel [KATP] at 10 µM in the Eurofins-Panlabs radioligand binding assay (Eurofins_assay_265600); conditions: Cricetinae; Compound concentration 10.0 uM
# [20] = target: Kappa-type opioid receptor (Homo sapiens) (UniProt P41145); conditions: Compound concentration 10.0 uM
# Rattus norvegicus [21] = organism: Rattus norvegicus; assay: Inhibition of Imidazoline I2, Central at 10 µM in the Eurofins-Panlabs radioligand binding assay (Eurofins_assay_241000); set-up: ligand concentration 2 nM; conditions: Compound concentration 10.0 uM
# [22] = target: Glucocorticoid receptor (Homo sapiens) (UniProt P04150); assay: Glucocorticoid Eurofins-Panlabs radioligand binding assay; conditions: Compound concentration 10.0 uM
# [23] = target: Cysteinyl leukotriene receptor 1 (Homo sapiens) (UniProt Q9Y271); assay: Inhibition of Leukotriene, Cysteinyl CysLT1 at 10 µM in the Eurofins-Panlabs radioligand binding assay (Eurofins_assay_250460); set-up: ligand concentration 0.3 nM, non-specific ligand with concentration 0.3 µM Leukotriene D4, incubation time 30 min, incubation temperature 25 °C; conditions: Compound concentration 10.0 uM
# [24] = target: Alpha-2B adrenergic receptor (Homo sapiens, UniProt P18089); assay: GPCRScan assay: inhibition of Alpha2B; set-up: radioligand conc. used [nm] 1.5 – 2.0, parental cells HEKT
# [25] = target: Adenosine receptor A2a (Homo sapiens) (UniProt P29274); conditions: Compound concentration 10.0 uM
# Sequence of Alpha-2B adrenergic receptor (P18089 whole entry): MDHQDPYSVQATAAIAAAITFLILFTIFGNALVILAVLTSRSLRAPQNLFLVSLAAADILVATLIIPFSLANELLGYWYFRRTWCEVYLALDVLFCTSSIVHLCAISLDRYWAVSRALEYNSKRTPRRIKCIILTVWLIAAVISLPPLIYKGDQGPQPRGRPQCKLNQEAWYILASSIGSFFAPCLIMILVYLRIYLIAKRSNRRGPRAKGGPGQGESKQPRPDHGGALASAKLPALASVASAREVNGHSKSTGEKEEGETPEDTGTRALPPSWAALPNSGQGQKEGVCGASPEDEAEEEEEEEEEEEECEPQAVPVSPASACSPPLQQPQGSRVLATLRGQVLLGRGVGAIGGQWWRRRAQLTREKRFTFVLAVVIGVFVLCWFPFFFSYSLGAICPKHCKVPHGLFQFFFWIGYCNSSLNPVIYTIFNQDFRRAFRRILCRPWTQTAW
# Sequence of Beta-2 adrenergic receptor (Homo sapiens) (P07550 whole entry, looked up): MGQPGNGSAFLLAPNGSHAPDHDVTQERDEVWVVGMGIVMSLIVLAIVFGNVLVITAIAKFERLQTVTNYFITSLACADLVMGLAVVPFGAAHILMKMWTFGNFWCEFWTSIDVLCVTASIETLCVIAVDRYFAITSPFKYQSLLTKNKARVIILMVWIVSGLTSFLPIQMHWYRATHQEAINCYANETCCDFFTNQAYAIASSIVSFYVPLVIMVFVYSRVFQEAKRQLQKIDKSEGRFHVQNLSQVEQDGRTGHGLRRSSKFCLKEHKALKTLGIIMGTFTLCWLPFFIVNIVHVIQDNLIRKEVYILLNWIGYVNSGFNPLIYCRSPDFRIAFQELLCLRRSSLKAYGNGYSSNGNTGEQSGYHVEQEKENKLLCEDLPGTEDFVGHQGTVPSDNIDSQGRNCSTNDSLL
# Sequence of Cysteinyl leukotriene receptor 1 (Homo sapiens) (Q9Y271 whole entry): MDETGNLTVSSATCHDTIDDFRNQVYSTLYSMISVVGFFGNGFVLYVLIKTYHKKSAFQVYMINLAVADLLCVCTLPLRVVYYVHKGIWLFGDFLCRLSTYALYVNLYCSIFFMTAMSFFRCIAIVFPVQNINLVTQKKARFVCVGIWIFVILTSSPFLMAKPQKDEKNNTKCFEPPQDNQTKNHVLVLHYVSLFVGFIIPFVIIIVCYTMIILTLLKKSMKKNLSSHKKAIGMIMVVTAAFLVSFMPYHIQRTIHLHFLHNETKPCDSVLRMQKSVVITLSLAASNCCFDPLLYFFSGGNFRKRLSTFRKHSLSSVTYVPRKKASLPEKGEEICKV
# Sequence of Sodium-dependent serotonin transporter (Homo sapiens) (P31645 whole entry, looked up): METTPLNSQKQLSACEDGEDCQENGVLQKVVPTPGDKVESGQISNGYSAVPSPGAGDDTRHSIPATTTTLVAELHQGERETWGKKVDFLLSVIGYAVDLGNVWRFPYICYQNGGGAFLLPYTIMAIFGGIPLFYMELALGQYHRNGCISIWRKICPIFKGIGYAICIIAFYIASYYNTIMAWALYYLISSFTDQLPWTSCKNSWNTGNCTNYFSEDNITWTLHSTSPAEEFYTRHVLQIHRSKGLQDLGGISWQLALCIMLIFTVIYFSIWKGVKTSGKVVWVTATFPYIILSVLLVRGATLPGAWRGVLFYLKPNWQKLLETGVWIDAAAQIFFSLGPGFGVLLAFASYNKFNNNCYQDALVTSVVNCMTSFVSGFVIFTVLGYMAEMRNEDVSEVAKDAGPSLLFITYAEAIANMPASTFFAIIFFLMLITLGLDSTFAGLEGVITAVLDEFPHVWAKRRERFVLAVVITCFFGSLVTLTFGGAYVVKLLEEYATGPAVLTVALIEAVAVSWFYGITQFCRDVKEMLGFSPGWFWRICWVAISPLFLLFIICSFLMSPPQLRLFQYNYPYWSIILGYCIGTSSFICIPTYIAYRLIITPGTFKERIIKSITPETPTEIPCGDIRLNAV
# Sequence of Glucocorticoid receptor (Homo sapiens) (P04150 whole entry): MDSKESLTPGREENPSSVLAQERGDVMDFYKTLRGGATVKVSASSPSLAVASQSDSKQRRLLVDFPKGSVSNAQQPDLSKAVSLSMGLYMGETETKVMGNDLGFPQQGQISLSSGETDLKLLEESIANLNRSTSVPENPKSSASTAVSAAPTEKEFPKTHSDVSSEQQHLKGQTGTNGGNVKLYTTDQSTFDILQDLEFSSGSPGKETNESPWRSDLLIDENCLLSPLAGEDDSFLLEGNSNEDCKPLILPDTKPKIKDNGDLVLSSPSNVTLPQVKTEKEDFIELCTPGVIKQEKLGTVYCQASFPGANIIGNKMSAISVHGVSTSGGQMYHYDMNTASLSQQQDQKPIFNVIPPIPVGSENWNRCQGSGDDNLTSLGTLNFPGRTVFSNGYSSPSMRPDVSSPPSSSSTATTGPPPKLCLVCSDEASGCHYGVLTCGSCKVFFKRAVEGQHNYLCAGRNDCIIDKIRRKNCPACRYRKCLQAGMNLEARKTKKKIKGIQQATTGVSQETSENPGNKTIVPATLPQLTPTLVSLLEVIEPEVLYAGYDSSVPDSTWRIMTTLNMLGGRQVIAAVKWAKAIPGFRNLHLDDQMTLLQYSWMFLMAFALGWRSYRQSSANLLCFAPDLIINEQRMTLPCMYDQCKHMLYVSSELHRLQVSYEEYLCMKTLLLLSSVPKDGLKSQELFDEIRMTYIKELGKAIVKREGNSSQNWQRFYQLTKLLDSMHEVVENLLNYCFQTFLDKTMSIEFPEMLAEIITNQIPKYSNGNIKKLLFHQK
# Sequence of Gamma-aminobutyric acid type B receptor subunit 1 (Homo sapiens) (Q9UBS5 whole entry): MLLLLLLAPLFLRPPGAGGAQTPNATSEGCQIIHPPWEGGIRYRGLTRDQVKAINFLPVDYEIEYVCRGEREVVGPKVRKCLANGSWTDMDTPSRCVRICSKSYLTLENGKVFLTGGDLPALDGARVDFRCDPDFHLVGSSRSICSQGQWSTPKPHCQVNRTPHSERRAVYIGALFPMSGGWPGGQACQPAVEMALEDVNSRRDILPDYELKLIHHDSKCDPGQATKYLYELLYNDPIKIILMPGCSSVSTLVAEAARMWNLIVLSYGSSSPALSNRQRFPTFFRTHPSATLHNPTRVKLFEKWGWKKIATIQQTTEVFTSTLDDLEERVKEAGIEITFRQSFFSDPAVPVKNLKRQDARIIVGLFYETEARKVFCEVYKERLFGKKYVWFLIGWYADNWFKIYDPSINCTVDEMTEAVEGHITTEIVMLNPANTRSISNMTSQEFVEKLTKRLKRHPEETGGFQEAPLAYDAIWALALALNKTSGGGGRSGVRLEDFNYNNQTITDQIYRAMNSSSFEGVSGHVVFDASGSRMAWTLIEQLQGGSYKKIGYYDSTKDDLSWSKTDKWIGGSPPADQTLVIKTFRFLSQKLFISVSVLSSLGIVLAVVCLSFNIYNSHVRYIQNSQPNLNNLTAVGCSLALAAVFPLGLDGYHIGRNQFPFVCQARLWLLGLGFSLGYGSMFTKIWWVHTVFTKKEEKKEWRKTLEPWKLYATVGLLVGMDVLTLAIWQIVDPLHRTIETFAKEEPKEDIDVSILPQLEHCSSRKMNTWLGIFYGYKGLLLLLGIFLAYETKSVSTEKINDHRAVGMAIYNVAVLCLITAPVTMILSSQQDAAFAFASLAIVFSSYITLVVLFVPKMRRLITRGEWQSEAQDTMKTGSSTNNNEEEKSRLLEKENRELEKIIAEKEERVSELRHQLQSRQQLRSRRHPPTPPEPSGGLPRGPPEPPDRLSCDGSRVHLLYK
# Sequence of D(2) dopamine receptor (Homo sapiens) (P14416 whole entry): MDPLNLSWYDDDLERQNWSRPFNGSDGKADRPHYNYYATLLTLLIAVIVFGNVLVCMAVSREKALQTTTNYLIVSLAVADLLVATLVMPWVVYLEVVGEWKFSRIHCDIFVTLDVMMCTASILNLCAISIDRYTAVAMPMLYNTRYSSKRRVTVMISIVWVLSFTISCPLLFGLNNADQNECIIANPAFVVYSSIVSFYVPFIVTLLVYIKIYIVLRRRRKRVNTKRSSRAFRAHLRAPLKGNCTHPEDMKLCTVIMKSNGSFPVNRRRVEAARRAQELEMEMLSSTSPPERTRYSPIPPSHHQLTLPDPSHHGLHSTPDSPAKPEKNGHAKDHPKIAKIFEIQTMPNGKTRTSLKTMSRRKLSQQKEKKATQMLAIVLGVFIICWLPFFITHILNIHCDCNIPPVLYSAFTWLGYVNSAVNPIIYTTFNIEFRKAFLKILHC
# Sequence of Beta-1 adrenergic receptor (Homo sapiens) (P08588 whole entry, looked up): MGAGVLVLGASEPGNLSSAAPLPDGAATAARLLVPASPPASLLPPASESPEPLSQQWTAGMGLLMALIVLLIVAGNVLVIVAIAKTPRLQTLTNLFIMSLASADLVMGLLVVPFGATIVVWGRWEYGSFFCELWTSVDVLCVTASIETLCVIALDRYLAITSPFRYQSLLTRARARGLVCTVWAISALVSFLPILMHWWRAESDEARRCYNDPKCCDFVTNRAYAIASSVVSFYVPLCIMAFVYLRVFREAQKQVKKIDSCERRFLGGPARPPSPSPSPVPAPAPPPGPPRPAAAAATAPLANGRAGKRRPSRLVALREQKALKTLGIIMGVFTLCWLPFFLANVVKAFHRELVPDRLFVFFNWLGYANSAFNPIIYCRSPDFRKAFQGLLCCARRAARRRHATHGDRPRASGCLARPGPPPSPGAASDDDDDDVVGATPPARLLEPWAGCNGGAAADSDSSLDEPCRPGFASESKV
# Sequence of 5-hydroxytryptamine receptor 1E (Homo sapiens) (P28566 whole entry): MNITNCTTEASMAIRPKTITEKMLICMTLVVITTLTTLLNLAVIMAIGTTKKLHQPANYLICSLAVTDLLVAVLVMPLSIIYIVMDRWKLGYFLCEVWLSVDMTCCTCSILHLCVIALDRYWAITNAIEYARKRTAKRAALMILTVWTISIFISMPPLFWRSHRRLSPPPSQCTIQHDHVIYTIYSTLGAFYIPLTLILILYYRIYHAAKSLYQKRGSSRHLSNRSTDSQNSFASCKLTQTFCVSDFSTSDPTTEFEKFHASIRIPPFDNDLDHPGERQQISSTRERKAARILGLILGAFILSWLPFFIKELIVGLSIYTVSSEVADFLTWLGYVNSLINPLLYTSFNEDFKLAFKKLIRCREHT
compound,measurement,setting,value
NS(=O)(=O)c1cc(NC(=O)C2(c3ccccc3Cl)CC2)ccc1Oc1cccc(Cl)c1 [BAY-207],residual activity,[1],95%
same,inhibition,[2],-1.46%
same,Ki,[3],0.654 µM
same,Ki,[4],0.25 µM
same,pKi,[4],6.62
NS(=O)(=O)c1cc(NC(=O)Cc2ccccc2)ccc1Oc1cccc(Cl)c1 [BAY-1797],inhibition,[5],14%
same,inhibition,[6],15%
same,inhibition,[7],8%
same,inhibition,[8],15%
same,inhibition,[9],21%
same,inhibition,[10],-2%
same,inhibition,[11],5%
same,inhibition,[12],47%
same,inhibition,[13],6%
same,inhibition,[14],3%
same,inhibition,[15],2%
same,"inhibition at 3 h, 10 µM",[16],17% (not active)
same,inhibition,Rattus norvegicus [17],2%
same,inhibition,[18],4%
same,inhibition,[19],-9%
same,inhibition,[20],10%
same,inhibition,Rattus norvegicus [21],10%
same,inhibition,[22],20%
same,inhibition,[23],8%
same,Ki,[24]; read-out: Ki,4.29 µM
same,Ki,[24]; read-out: pKi (converted),4.32 µM
same,inhibition,[25],14%
